Test results published in ChEMBL document CHEMBL5465560, “Selectivity Literature for EUbOPEN Chemogenomic Library” (2024).

Columns and labels:
[1] = target: T1, Histone-arginine methyltransferase CARM1 (Homo sapiens, UniProt Q86X55); assay: Selectivity interaction (Western Blot (dimethylation of BAF155 (BAF155me2a/BAF155) in U266B1 cells)) EUB0000255b CARM1; assay type: cell-based, U-266
T1 sequence (Q86X55 whole entry): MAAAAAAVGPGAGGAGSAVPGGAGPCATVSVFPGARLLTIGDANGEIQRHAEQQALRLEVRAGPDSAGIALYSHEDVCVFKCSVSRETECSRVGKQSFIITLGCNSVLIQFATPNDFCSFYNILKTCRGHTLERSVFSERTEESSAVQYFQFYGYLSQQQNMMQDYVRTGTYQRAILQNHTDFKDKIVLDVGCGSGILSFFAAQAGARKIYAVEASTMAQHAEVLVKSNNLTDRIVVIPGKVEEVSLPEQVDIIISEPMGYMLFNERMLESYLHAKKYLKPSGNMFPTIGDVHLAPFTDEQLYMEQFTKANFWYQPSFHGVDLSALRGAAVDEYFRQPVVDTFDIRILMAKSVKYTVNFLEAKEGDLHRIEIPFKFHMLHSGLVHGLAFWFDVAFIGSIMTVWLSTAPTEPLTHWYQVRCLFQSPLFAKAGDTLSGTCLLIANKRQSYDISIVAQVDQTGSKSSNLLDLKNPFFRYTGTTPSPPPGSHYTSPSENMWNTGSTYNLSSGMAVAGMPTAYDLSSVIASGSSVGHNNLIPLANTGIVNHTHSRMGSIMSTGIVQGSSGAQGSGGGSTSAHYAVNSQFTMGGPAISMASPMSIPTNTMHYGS

[2] = target: Protein kinase C theta type (Homo sapiens, UniProt Q04759); assay: Selectivity interaction (KinomeScan (DiscoverX)) EUB0000229b PRKCQ; details: at 10 µM
Protein kinase C theta type, sequence (Q04759 whole entry, looked up): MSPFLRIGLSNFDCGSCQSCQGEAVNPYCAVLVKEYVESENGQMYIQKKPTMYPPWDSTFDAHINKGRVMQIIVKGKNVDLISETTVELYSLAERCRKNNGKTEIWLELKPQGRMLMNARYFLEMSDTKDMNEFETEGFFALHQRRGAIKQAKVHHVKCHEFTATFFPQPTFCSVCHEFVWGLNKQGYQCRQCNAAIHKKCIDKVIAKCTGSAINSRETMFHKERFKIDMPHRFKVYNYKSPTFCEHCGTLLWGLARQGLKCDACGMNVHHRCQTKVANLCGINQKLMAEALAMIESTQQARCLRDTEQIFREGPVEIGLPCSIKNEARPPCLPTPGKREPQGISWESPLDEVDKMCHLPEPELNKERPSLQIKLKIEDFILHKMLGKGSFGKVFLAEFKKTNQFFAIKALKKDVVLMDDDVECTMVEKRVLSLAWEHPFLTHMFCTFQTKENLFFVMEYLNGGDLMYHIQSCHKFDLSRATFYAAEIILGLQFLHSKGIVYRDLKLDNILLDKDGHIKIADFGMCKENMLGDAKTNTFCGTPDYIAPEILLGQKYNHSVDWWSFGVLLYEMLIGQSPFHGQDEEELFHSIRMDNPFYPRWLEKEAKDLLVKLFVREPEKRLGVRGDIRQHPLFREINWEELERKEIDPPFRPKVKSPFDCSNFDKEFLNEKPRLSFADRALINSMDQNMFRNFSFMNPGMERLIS

[3] = tested on: Tyrosine-protein kinase ABL1 (Homo sapiens), P00519 [F317I]; assay: Selectivity interaction (KinomeScan (DiscoverX)) EUB0000655a ABL1; details: at 10 µM
Tyrosine-protein kinase ABL1 (Homo sapiens), P00519 [F317I], sequence (P00519 whole entry F317I): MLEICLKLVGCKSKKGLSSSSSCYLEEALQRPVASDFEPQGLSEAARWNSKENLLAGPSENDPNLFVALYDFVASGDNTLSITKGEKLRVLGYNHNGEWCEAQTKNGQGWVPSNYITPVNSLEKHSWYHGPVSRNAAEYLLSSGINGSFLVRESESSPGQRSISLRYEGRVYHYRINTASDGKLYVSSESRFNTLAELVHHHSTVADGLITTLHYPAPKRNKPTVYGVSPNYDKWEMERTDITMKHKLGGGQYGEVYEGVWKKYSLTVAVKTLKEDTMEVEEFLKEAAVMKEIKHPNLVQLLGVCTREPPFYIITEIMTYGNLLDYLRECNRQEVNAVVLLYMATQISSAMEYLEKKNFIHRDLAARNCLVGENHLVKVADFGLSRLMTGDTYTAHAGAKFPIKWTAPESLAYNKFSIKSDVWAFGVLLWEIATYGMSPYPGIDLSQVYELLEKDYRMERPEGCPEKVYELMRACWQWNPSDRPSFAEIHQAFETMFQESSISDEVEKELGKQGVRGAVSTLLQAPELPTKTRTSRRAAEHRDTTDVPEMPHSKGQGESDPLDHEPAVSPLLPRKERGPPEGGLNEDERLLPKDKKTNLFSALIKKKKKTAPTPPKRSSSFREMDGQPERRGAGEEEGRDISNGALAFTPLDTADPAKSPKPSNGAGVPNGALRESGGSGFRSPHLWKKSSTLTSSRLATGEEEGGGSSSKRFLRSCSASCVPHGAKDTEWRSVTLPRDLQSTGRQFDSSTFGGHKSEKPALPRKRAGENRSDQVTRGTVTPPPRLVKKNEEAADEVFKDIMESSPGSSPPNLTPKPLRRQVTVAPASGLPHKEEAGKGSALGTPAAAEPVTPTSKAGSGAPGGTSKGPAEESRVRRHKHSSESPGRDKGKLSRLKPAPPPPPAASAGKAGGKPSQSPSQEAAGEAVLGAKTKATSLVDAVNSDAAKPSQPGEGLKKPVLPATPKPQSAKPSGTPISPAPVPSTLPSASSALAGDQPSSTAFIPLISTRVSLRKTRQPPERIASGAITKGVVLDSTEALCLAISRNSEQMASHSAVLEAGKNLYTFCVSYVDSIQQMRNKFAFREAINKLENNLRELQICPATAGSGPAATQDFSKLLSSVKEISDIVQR

[4] = target: T2, Serine/threonine-protein kinase ULK1 (Homo sapiens) (UniProt O75385); assay: Selectivity interaction (Kinase panel (DSF assay)) EUB0001559a ULK1
T2 sequence (whole entry): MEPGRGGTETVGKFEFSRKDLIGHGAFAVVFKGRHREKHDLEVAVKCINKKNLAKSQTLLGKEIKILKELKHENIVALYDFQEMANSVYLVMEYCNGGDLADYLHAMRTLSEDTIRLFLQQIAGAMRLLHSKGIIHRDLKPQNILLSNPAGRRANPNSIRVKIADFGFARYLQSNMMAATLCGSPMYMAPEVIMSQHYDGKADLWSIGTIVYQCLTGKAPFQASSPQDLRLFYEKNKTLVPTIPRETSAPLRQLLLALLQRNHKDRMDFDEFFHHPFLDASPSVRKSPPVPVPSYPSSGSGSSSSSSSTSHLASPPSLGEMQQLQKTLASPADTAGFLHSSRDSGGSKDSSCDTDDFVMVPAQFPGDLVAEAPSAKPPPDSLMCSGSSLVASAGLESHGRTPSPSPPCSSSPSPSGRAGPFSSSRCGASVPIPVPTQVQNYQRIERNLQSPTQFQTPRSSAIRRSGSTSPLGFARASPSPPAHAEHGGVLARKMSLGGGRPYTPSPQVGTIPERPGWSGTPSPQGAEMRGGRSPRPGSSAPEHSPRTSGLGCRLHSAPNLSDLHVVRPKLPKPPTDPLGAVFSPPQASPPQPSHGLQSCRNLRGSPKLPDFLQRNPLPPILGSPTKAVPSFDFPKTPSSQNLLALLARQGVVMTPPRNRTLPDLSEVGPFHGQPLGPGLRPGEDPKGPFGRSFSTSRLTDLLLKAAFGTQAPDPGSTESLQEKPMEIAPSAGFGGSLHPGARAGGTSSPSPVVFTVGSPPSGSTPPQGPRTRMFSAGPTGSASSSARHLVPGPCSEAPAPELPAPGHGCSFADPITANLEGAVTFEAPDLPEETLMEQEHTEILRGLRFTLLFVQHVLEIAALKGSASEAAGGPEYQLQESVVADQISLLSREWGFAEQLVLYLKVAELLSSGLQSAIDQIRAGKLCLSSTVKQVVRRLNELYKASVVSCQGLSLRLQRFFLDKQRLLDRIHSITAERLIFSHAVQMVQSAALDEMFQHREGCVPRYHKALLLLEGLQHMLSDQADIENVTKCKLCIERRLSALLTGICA

[5] = target: Serine/threonine-protein kinase SIK2 (Homo sapiens) (UniProt Q9H0K1); assay: Selectivity interaction (KinomeScan (DiscoverX)) EUB0001079a SIK2; details: at 1 µM
[6] = target: Tyrosine-protein kinase Lyn (Homo sapiens, UniProt P07948); details: at 10 µM
Tyrosine-protein kinase Lyn, sequence (P07948 2-512 limits assumed): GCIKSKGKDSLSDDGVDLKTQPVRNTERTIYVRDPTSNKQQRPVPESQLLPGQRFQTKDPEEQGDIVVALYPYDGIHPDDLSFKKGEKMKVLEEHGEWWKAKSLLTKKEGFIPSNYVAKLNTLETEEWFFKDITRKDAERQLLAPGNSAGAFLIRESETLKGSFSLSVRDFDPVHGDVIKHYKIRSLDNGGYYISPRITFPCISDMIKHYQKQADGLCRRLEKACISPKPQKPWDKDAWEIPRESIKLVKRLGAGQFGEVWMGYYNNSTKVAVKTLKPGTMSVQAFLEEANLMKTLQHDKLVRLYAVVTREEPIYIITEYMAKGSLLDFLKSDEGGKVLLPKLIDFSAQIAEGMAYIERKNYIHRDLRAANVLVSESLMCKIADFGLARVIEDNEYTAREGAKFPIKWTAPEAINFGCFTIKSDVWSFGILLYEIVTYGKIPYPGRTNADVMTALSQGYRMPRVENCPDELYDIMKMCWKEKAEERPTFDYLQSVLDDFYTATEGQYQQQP

[7] = target: 5-hydroxytryptamine receptor 2A (Homo sapiens, UniProt P28223); assay: Selectivity interaction (Panel of kinases, GPCRs, ion channels and transporters (enzymatic assay)) EUB0000223bCl HTR2A
5-hydroxytryptamine receptor 2A, sequence (P28223 whole entry): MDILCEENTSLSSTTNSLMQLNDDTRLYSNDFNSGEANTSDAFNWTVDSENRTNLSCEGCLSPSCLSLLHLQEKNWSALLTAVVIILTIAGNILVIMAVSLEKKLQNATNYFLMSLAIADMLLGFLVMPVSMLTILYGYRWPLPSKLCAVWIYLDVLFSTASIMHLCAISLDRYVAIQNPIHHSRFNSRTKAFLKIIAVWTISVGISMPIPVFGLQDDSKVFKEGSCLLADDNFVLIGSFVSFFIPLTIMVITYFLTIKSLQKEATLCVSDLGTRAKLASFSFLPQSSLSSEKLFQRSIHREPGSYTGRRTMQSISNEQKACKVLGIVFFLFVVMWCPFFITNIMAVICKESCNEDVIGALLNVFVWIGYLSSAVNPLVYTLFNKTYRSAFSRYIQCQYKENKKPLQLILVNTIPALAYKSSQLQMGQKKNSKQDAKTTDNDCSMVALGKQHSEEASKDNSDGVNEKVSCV

[8] = target: Homeodomain-interacting protein kinase 2 (Homo sapiens, UniProt Q9H2X6); assay: Selectivity interaction (KinomeScan (DiscoverX)) EUB0000045b HIPK2
Homeodomain-interacting protein kinase 2, sequence (Q9H2X6 whole entry, looked up): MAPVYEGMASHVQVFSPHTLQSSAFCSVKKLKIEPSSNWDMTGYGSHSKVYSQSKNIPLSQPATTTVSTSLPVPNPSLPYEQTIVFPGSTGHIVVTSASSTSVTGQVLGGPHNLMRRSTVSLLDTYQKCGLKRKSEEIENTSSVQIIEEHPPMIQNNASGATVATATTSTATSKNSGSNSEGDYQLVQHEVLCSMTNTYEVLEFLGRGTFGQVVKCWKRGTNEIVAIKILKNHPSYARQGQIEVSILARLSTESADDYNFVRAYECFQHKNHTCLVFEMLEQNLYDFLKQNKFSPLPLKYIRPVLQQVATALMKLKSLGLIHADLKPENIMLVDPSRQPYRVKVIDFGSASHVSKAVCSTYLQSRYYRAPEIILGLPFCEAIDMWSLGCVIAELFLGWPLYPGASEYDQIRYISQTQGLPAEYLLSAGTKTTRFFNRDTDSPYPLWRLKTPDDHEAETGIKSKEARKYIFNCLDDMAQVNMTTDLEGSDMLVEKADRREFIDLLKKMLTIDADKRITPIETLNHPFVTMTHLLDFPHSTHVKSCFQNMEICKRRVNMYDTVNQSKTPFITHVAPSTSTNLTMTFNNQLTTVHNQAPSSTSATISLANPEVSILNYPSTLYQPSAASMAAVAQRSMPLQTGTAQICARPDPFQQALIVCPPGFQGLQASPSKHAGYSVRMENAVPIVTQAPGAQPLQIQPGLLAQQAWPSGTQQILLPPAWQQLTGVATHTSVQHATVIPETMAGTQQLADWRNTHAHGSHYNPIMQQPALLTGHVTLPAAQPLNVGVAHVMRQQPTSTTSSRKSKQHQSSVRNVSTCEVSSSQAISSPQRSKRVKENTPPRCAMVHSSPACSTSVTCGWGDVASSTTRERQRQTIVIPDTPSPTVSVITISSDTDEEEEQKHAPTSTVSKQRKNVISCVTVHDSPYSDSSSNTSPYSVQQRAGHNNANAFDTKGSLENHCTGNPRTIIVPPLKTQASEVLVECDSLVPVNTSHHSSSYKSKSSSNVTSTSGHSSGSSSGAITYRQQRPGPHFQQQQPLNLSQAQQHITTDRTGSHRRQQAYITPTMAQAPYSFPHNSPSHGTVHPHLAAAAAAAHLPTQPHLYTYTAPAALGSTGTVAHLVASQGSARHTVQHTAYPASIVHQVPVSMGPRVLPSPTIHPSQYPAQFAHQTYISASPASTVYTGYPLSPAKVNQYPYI

[9] = target: Receptor-interacting serine/threonine-protein kinase 2 (Homo sapiens, UniProt O43353); assay: Selectivity interaction (KinomeScan (DiscoverX)) EUB0000618a RIPK2; details: at 10 µM
Receptor-interacting serine/threonine-protein kinase 2, sequence (O43353 whole entry): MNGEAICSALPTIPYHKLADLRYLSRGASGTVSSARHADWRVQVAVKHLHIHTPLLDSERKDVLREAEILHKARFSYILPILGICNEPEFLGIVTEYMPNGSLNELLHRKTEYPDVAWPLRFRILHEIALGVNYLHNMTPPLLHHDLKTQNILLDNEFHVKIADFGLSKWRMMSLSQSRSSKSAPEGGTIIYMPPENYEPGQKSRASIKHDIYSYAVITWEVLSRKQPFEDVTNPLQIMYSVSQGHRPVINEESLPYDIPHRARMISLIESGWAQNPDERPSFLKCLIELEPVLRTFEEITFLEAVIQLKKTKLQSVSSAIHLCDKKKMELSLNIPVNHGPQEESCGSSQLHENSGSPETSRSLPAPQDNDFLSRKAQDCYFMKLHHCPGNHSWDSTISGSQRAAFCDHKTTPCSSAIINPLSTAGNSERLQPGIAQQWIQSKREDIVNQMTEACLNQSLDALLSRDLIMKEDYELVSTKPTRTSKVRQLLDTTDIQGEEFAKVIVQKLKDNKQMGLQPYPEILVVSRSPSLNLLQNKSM

[10] = target: T3, Mitogen-activated protein kinase kinase kinase 7 (Homo sapiens) (UniProt O43318); assay: Selectivity interaction (Ambit KINOMEscan and KiNATiv profiling in Jurkat cells) EUB0000090b MAP3K7; assay type: cell-based; details: at 1 µM
T3 sequence (whole entry): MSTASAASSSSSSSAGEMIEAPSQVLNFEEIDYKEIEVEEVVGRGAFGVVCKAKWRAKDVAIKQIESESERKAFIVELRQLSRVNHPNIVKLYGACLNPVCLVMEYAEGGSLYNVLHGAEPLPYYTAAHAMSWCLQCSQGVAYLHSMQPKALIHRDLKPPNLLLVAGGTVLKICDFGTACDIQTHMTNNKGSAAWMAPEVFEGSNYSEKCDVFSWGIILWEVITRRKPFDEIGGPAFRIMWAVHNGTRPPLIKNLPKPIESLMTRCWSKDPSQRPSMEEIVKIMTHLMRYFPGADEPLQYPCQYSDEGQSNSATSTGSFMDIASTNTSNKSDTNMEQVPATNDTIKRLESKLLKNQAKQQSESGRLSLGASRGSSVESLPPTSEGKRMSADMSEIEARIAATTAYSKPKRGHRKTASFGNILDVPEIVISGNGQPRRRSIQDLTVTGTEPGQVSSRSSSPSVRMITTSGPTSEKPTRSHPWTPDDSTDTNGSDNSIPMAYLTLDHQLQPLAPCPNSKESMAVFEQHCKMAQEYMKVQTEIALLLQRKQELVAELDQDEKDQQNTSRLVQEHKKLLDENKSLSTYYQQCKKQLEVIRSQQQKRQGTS

[11] = target: Calcium/calmodulin-dependent protein kinase type II subunit gamma (Homo sapiens) (UniProt Q13555); assay: Selectivity interaction (ActivX KiNativ screen (ex vivo kinase selectivity in human PBMCs)) EUB0001619a CAMK2G; assay type: cell-based; details: PBMC, at 1 µM

`COCCN1CCC(c2cc(CN(C)C(=O)c3cccc(Oc4ccccc4)c3)ccn2)CC1` was tested. Which IC50 [1] did it give?
Its IC50 is greater than 3 nM.

Which % binding [2] does the source give for `COc1cc(N(C)c2ccnc3ccc(C(F)(F)F)cc23)cc(OC)c1OC` here?
Its % binding is 66%.

With `CN(C)CCOc1ccc(-c2nc(-c3ccncc3)c(-c3ccc4c(c3)CC/C4=N\O)[nH]2)cc1` as the molecule, how does the % of control [3] read?
Its % of control is 81%.

`CN(C(=O)c1cnn2cccnc12)c1cc2c(cc1N1CCOCC1)C(=O)N(C[C@@H](F)C(C)(C)O)C2` was tested. Which dTM [4] did it give?
Its dTM is -1 K.

With `Nc1cnc(N2CCc3cc(S(=O)(=O)Nc4c(F)cc(Cl)cc4F)cc(N4CCCC4=O)c32)nc1` [TP-020n] as the molecule, how does the % of control [5] read?
Its % of control is 100%.

Which % of control [6] does the source give for `Cc1cc([C@@H](C)Nc2ccccc2C(=O)O)c2nc(N3CCOCC3)cc(=O)n2c1` [AZD-6482] here?
The % of control was 99%.

For `COc1cc(C(=O)N2CC[C@@H](O)[C@@H](N)C2)cc2nc(-c3cc4ccccc4n3CC3CC3)n(C)c12`, which pXC50 [7] is on record?
Its pXC50 is less than 4.4 M.

How did the % of control ([8]; at 1 µM) turn out when `C=CC(=O)Nc1cc(-n2c(=O)ccc3cnc4ccc(-c5ccc(NS(C)(=O)=O)cc5)cc4c32)ccc1C` was run?
The % of control was 100%.

And the % of control ([8]; at 10 µM)?
The % of control was 100%.

How did the % of control [9] turn out when `O[C@H]1CC[C@H](Nc2ncc3nc(Nc4c(F)cc(F)cc4F)n([C@H]4CCOC4)c3n2)CC1` was run?
The % of control was 37%.

With `CN(C)C/C=C/C(=O)Nc1ccc(C(=O)N2CCCC(Nc3ncc(Cl)c(-c4c[nH]c5ccccc45)n3)C2)cc1` (configuration not stated) as the molecule, how does the % of control [10] read?
Its % of control is 90%.

Which % of inhibition [11] does the source give for `N#Cc1cccc(-c2c[nH]c3ncnc(N4CCOCC4)c23)c1` here?
Its % of inhibition is 10%.
